Test results as given in patent US20100168228A1, “NOVEL CHEMOTHERAPEUTIC AGENTS AGAINST INFLAMMATION AND CANCER” (RELIANCE LIFE SCIENCES PVT. LTD., priority 2006, published 2010).

Columns and labels:
phosphotyrosine = test: Tyrosine phosphorylation assay (flow cytometry), Jurkat; assay type: cell-based, human; settings: 24 h
Experimental: FIG. 20: Suppression of phosphotyrosine levels in Jurkat cells by compound 27. 1×10^6 cells were treated with indicated concentrations of the compound for 24 h. Cells were fixed and permeabilized as described in the “Materials and Methods”, and the extent of tyrosine phosphorylation in the cells was determined by measuring the increase in fluorescence produced by the FITC-labeled monoclonal antibody compared to the FITC-labeled isotype control antibody. 100 nM concentration was sufficient to bring significant reduction in tyrosine phosphorylation levels compared to the control values.
Tyrosine Phosphorylation assay: Tyrosine Phosphorylation assay was performed by the method described by Far, D. F. et. al., (Cytometry (1994) 15(4):327-334) and Park. J. B., et al. ((2003) Cancer Letters, 202 161-171). Briefly, cells (10^6) were washed with ice-cold PBS, pH 7.2 for 30 min at 4° C. After centrifugation and a PBS wash it was treated with 5 ml chilled 70% ethanol. […] Extent of tyrosine phosphorylation in the cells was determined by measuring the increase in fluorescence produced by the FITC-labeled monoclonal antibody compared to the FITC-labeled isotype control antibody. Fluorecence events for 10,000 cells were collected and analyzed by flow cytometry (FACSCalibur cytometer with CellQuest software, Becton Dicinson, San Jose, Calif.).

HeLa cells = test: Apoptosis by PARP cleavage (FACS), HeLa; assay type: cell-based, human; settings: 100 nM, 24 h
Experimental: FIG. 19: Effect of compound 27 on the apoptosis in cells with different p53 status. Extent of apoptosis in different cells was measured by staining the cells for PARP cleavage followed by FACS analysis. Cells were treated with 100 nM of the compound for 24 h and the level of apoptosis was seen. Percentage apoptotic populations are represented as the M2 gated population.
PARP Cleavage Assay using Flow Cytometry: Extent of PARP cleavage is determined using polyclonal antibody specifically recognizing the 85 kDa fragment of cleaved PARP (NSB 699 Novus Biologicals) and can be used as a marker for detecting apoptotic cells. Treated cells were fixed with 70% chilled ethanol and permeabilized for 30 min at RT (PBS+0.5% BSA+0.02% NaN3+0.5% saponin) and stained with anti PARP-FITC (10 μl/10^6 cells) for one hour at RT. Cells were washed twice with wash buffer (PBS+1% heat inactivated FBS) and analysed using FACS.

bcl-2 = bcl-2 mRNA, semi-quantitative RT-PCR, Jurkat; assay type: cell-based, human; settings: 0-500 nM, 24 h
Experimental: FIG. 18: Effects of compound 27 on p53, Bax, bcl-2 mRNA levels in Jurkat cells. Expression of human p53, bax-α, bcl-2, was assayed by semi quantitative RT-PCR analysis with GAPDH as internal control. Cells were treated for 24 h with various doses of the compound (0, 50, 100 and 500 nM), then total RNA was extracted and submitted to RT-PCR.
RNA extraction: Total RNA was isolated using the standard TRIzol method (Gibco BRL). Briefly, 3×10^6 cells were treated with different concentrations of the compounds as indicated in the legends to Figures and after harvesting the cell pellet was resuspended in 1 ml of TRIzol with repeated pipetting. The homogenized sample was incubated at RT for 5 min to permit complete dissociation of the nucleoprotein complexes. […] of chloroform was added and the tubes were shaken vigorously for 15 sec by hand and then incubated at RT for 3 mins. The samples were then centrifuged at 10,000 RPM for 15 mins at 4° C. The aqueous phase was transferred to a fresh tube and 500 μl of Isopropyl alcohol was added, followed by incubation at RT for 10 mins. […]
Semi-quantitative reverse transcriptase (RT)-PCR: Changes in gene expression were verified by semi-quantitative RT-PCR using GAPDH as an internal normalization standard. 1 μg of total RNA (quantified by spectrophotometer) was used to reverse transcribe into cDNA. […]

U937 = test: Cytotoxicity (MTT) in different human tumor cell lines; assay type: cell-based; settings: 30 μM, 72 h
Experimental: FIG. 9: CAMVE induces differential cytotoxicity in different human tumor cell lines. Different human tumor cell lines were cultured either in the presence or absence of CAMVE (30 μM) for 72 h. The MTT assay was done and absorbance taken at 570 nm. The result indicated are mean O.D. of triplicate culture.
Cytotoxicity was assayed by the modified tetrazolium salt 3-(4,5-dimethylthiazol-2-yl)-2,5-diphenyltetrazolium bromide (MTT) assay as described by Plumb, J A et al. (Cancer Res. 1989 Aug. 15; 49(16):4435-4440).

| Compound | phosphotyrosine level (mean fluorescence intensity) (phosphotyrosine; 100 nM, vs untreated controls) | phosphotyrosine level (phosphotyrosine; all doses) | level of apoptosis (PARP cleavage) (HeLa cells) | anti-apoptotic bcl-2 mRNA levels (bcl-2) | CAMVE mediated cell death (MTT), sensitivity among tumor cell lines (U937) |
| --- | --- | --- | --- | --- | --- |
| COc1cc([C@@H]2Oc3c(OC)cc(/C=C/C(=O)O)cc3[C@H]2C(=O)O)ccc1O [compound 27, 5-[(E)-2-carboxyvinyl]-2β-(4-hydroxy-3-methoxyphenyl)-7-methoxy-2,3-dihydro-1-benzofuran-3α-carboxylic acid] | significant reduction in the mean fluorescence intensity | reduced at all doses | significant induction of apoptosis | downregulated in a dose dependent manner |  |
| COC(=O)c1ccc(OC(=O)/C=C/c2ccc(O)c(O)c2)c(OC)c1 [compound 1, Methyl 4-{[(2E)-3-(3,4-dihydroxyphenyl)prop-2-enoyl]oxy}-3-methoxybenzoate] |  |  |  |  | most sensitive to CAMVE treatment |
